Here are results for 4 compounds from paper PMC6199309, “A therapeutic approach to pantothenate kinase associated neurodegeneration” (Nature Communications, 2018).

In brackets after ≈: the same amount, converted by molar mass. Entries after “also recorded” stand apart in the source; their conditions may differ. Counter-ions that a name gives are not always drawn. Some results are limits rather than exact numbers.

The nature of series [1]: Tissue pantothenate levels in mice. It is filed as in vivo. The following applies: C57Bl6/J, mouse, liver; 200 mg/kg pantothenate by oral gavage, 4 h after last of 5 doses; read-out: calculated intracellular pantothenate concentration in liver. The procedure:
Plasma (10 μl) was added to 800 μl methanol and 190 μl water along with 200 pmol (β-alanyl-^13C3^15N)-pantothenate (^13C^15N-Pan, Sigma). Tissue (30–40 mg) was homogenized in 2 ml of 80% methanol, and 500 pmol of ^13C^15N-Pan was added. The samples were incubated at −80 °C for 4 h. Samples were spun at 3500xg for 10 min to pellet debris, and supernatant was transferred to a new tube and dried using a SpeedVac overnight. Samples were resuspended in water + 0.1% formic acid and spun through a Spin-X Centrifuge Tube Filter (0.22 μm Cellulose Acetate, Costar).
Pantothenate was analyzed using a Shimadzu Prominence UFLC attached to a QTrap 4500 equipped with a Turbo V ion source (Sciex). Samples were injected onto an XSelect® HSS C18, 2.5 μm, 2.1 × 150 mm column using a flow rate of 0.2 ml/min. Solvent A was 0.1% formic acid in water, and Solvent B was acetonitrile + 0.1% formic acid. […] The MRM transition for pantothenate was 220.0 / 184.1 m/z and [^13C^15N]pantothenate was 224.0 / 188.1 m/z both with a declustering potential, 35 V and collision energy, 22 V. The system was controlled by the Analyst® software (Sciex) and analyzed with MultiQuant™ 3.0.2 software (Sciex). Intracellular pantothenate was measured as pmoles/mg wet weight.

For another series, the system named is C3A cells. Kind of series: Intracellular CoA and metabolite levels in C3A cells. It is filed as cell-based, human. The procedure: HEK293T cells (ATCC, #CRL-3216) were maintained in Dulbecco’s modified Eagle’s medium (DMEM, Biowhittaker/Lonza) supplemented with 10% FCS. Human C3A [HepG2/C3A, derivative of HepG2] cells (ATCC #CRL-10741) were purchased from ATCC® and maintained in Eagle’s minimum Essential medium (ATCC) supplemented with 2 mM glutamine, 10% fetal bovine serum (FCS, Altanta Biologicals), 50 U/ml penicillin and […] streptomycin. Both cell lines were confirmed to be mycoplasma-free. […]. […] After 24 h of treatment (total 48 h after transfection) the cells were washed with PBS and harvested and subjected to either total CoA or acetyl-CoA determinations.
Prior to labeling, cells were seeded at a density of 2–3 × 10^6 in 60 mm-dishes in reconstituted DMEM without added pantothenate and allowed to adhere overnight. The labeling was initiated by replacing the medium with 2 ml of labeling medium containing 0.1% dimethylsulfoxide (DMSO; control) or 10 μM of the compound in 0.1% DMSO. Cells were incubated for 24 h, the labeling medium was removed, and cells were washed with phosphate buffered saline and lysed by sonication in 20 mM Tris-HCl, pH 7.5, 2 mM DTT, 5 mM EDTA and 50 mM NaF. The lysates were fractionated by thin-layer chromatography after removal of the cell debris by centrifugation. The samples were spotted on Silica Gel H plates and resolved with 95% ethanol:28% ammonium hydroxide (4/1, v/v). The distribution of radioactivity on the plate was quantified using a Bioscan Imager (Bioscan, Inc.) together with quantification of the total cellular radioactivity determined by a Liquid Scintillation Analyzer (PerkinElmer Tri-Carb 2910 TR). Triplicate culture dishes were labeled for each group plus a dish for each group for determination of cell counts and viability using a Nucleocounter (New Brunswick Scientific) according to the manufacturer’s directions. The experiments were repeated twice in duplicate and the data represented is an overall average ± SEM.
Cultured cells or frozen tissues were resuspended in 2 ml cold water to which 500 μl of 0.25 M KOH was added, derivatized with monobromobimane (mBBr, Life technologies) and quantified by HPLC[23]. For acetyl-CoA determinations, C3A cells were resuspended in 1 ml water, added to 2 ml of methanol and 1 ml chloroform, and incubated on ice for 15 min. Chloroform 1.5 ml, 1.2 ml water and 30 pmol of [^13C2]acetyl-CoA (Sigma) was added, and centrifuged at 2000×g for 10 min. The top layer was loaded on a 2-(2-pyridyl) ethyl solid phase extraction column which was equilibrated with 1 ml 50% methanol/2% acetic acid. The column was washed twice with 1 ml 50% methanol/2% acetic acid and 1 ml water. CoA and thioesters were eluted twice with 1 ml 95% ethanol containing 50 mM ammonium hydroxide. Samples were resuspended in 90% methanol containing 15 mM ammonium hydroxide.
The mBBr derivatized sample was fractionated by reverse-phase HPLC using a Gemini C18 3 μm column (150 × 4.60 mm) from Phenomenex. The chromatography system was a Waters e2695 separation module with a UV/Vis and fluorescence detector and controlled by Empower 3 software. Solvent A was 50 mM potassium phosphate pH 4.6, and solvent B was 100% acetonitrile. Twenty microliters of sample was injected onto the column, and the flow rate was 0.5 ml/min. The HPLC program was the following: starting solvent mixture of 90% A/10% B, 0–2 min isocratic with 10% B, 2–6 min linear gradient from 10% B to 15% B, 6–18 min concave gradient from 15% B to 40% B, 18–23 min isocratic with 40% B, 23–25 min linear gradient from 40 to 10%, and 25–30 min isocratic with 10% B. The UV/vis detector was set at 393 nm, and the fluorescence detector was set with excitation at 393 nm and emission at 470 nm. […]

Series [2] is described as follows: Plasma stability. It is filed as in vitro ADME. The settings on record: mouse, read-out: Plasma Stability T1/2.
The nature of another series: PAMPA-BBB. It is filed as in vitro ADME. The settings on record: BBB = Blood Brain Barrier, read-out: PAMPA-BBB, Avg Pe. (In general: In PAMPA a lipid-coated filter parts donor from acceptor wells.)
The nature of series [3]: Protein binding. The settings on record: mouse.
Series [4] in a line: Protein binding. The settings on record: human.
Series [5] can be described thus: Plasma stability. It is filed as in vitro ADME. The following applies: human, read-out: Plasma Stability T1/2.
A short description of series [6]: Microsomal stability. The following applies: mouse, microsomes.
Series [7] can be described thus: Microsomal stability. The following applies: human, microsomes.
A short description of series [8]: Microsomal stability. The settings on record: rat, microsomes.
A short description of the next series: Caco2 permeability. It is filed as in vitro ADME. The settings on record: human, Caco-2; read-out: Caco2 Permeability Efflux Ratio (B2A/A2B). On the technique in general: Caco-2 monolayers are a common model of the intestinal barrier.
The next series concerns HEK293T cells. Kind of series: Intracellular CoA levels in transfected HEK293T cells. It is filed as cell-based, human. The settings on record: 10 μM, 24 h.
The next series has as its target T1, human PANK3 (Homo sapiens, UniProt Q9H999).
T1 construct: His; made in house
The series is described as follows: PANK activity assay (radiochemical, without acetyl-CoA). Format: biochemical.

A short description of series [9]: Protein binding. The following applies: rat.
The nature of series [10]: Plasma stability. It is filed as in vitro ADME. The following applies: rat, read-out: Plasma Stability T1/2 (converted).

T1 sequence (Q9H999 whole entry): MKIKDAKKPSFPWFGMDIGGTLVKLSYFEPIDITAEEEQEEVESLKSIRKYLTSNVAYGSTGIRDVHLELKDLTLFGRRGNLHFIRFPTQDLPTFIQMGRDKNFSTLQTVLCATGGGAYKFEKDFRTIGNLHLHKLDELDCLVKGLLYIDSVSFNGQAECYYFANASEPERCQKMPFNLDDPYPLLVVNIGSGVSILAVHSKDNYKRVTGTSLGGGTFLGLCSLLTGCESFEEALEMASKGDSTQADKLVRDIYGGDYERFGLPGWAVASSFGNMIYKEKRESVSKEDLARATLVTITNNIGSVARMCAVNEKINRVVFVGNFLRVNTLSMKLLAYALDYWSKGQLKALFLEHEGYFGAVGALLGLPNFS
Method for HEK293T cells: Chloroform 1.5 ml, 1.2 ml water and 30 pmol of [^13C2]acetyl-CoA (Sigma) was added, and centrifuged at 2000×g for 10 min. The top layer was loaded on a 2-(2-pyridyl) ethyl solid phase extraction column which was equilibrated with 1 ml 50% methanol/2% acetic acid. The column was washed twice with 1 ml 50% methanol/2% acetic acid and 1 ml water. […] Samples were resuspended in 90% methanol containing 15 mM ammonium hydroxide.
Method for human PANK3: The assay was linear with time and after 10 min at 37 °C the reaction was stopped by the addition of 4 μl of 10% (v/v) acetic acid. […] All the experiments were repeated twice in duplicate and the data were an average ± data range.
The IC50 values for the structure–activity study were calculated by fitting the inhibition data to a one-site model of the Michaelis–Menten equation. […] (GraphPad software) that accounts for the impact of enzyme-inhibitor binding on the free concentration of inhibitor.

Take `CC(C)(CO)[C@@H](O)C(=O)NCCC(=O)O` [pantothenate, D-pantothenic acid, hemicalcium salt]: in series [1], the concentration at 4 h was 24.4 µM. Moreover, the “CoA content of C3A cells on varying pantothenate in medium” value with C3A cells (pantothenate alone, without PZ-2891) was “no effect on CoA content”.
As for `CC(C)c1ccc(CC(=O)N2CCN(c3ccc(C#N)cn3)CC2)cc1` [PZ-2863], the solubility in the series “Solubility at pH 7.4” is 25 µM (≈ 8.71 µg/mL).
For `CC(C)c1ccc(C(=O)CN2CCN(c3ccc(C#N)nn3)CC2)cc1` [PZ-3067, 6-(4-(2-(4-isopropylphenyl)-2-oxoethyl)piperazin-1-yl)pyridazine-3-carbonitrile], the half-life in the series “Plasma stability [2]” is more than 50 h; in “Plasma stability [5]”, more than 50 h; in “Microsomal stability [6]”, 30.6 min; in the series “Microsomal stability [7]” it was 9 min; in “Microsomal stability [8]”, 13.2 min; in the series “Plasma stability [10]”, 27 h. Also, in “PAMPA-BBB”, the Papp amounted to 0.8 ×10⁻⁶ cm/s. In addition, the “total intracellular CoA levels in C3A cells” value in the series with C3A cells (24 h, increasing concentrations (20 and 50 μM less activating)) is listed as “did not respond”. Also, the values for the fraction unbound in “Protein binding [3]”, in the series “Protein binding [4]” and in the series “Protein binding [9]” were 0.04, 0.04 and 0.1, respectively. Moreover, the “PAMPA; Avg Pe” value in the series “PAMPA” is 204 10-6 cm/s. Further, the efflux ratio in “Caco2 permeability” turned out to be 0.5. The “intracellular CoA, PANK3 overexpressing HEK293T cells” value in the series on HEK293T cells was “inactive”. Moreover, the IC50 against human PANK3 is more than 100 µM. Besides, the “inhibition of PANK3 (in words)” value at human PANK3 (negative control) is “no effect; also recorded: Inactive”. Further, in “Solubility at pH 7.4”, the concentration in solution (solubility) came to 18 µM (≈ 6.29 µg/mL).
As to `CC(C)(C)c1ccc(NC(=O)N2CCN(c3ccc(C#N)cn3)CC2)cc1` [PZ-2789, N-(4-(tert-butyl)phenyl)-4-(5-cyanopyridin-2-yl)piperazine-1-carboxamide], the half-life in the series “Plasma stability [2]” is more than 50 h; in “Plasma stability [5]”, more than 50 h; in the series “Microsomal stability [6]”, 15.6 min; in “Microsomal stability [7]”, 7.8 min; in “Microsomal stability [8]”, 30.6 min; in “Plasma stability [10]”, more than 50 h. In addition, in “PAMPA-BBB”, the Papp is 303 ×10⁻⁶ cm/s. In addition, in “PAMPA”, the “PAMPA; Avg Pe” value is 1232 10-6 cm/s. Besides, the fraction unbound in the series “Protein binding [9]” was 0.02. In the series “Solubility at pH 7.4”, this compound came in with a solubility of 1.4 µM (≈ 0.509 µg/mL).

For orientation: solubility means the dissolved amount per volume that the medium holds. A low value points to a poorly soluble substance. As a reminder, the fraction unbound is free concentration divided by total concentration. Low values mean extensive binding, high ones weak binding. The term IC50 denotes the concentration needed to halve the response being measured. A high value points to a need for much substance.
